Holding throughout (assay type): physicochemical
A short description of series [1]: Humidity stability of Form I, dynamic vapor sorption and equilibrium water uptake. The following applies: equilibrium. Here is the method:
Dynamic Vapor Sorption (DVS). Samples were analyzed using an […]™ DVS-2 gravimetric water sorption analyzer. The relative humidity was adjusted between 2-95% and the weight of sample was continuously monitored and recorded.
Humidity Stability of Form I. Form I was exposed to a typical relative humidity range that most labs will experience e.g. 15-75% at 25° C. Initially the chamber relative humidity was adjusted at 50%. Then the RH was cycled between 15 to 75% and weight was monitored. FIG. 18 illustrates the changes in weight as a function of relative humidity. If the solid is equilibrated at 50% relative humidity the variation in weight would about ±2 wt % between 15-75% RH. Furthermore, an equilibrium study was performed at various relative humidity environments for extended time. Table 5.6 show the equilibrium % water uptake at various humidity levels.

Series [2] in a line: Solid form stability: vapor diffusion, drying, grinding, competitive slurry, by XRPD. Here is the method: Vapor Diffusion into Solid. Form I was used along with 21 solvent system to evaluate the effect of vapor diffusion on polymorphic behavior. About 2 mL solvent was added to a 20 mL scintillation vial. Furthermore, about 30 mg of solid was added to an open 2 mL HPLC vial and the whole vial was placed inside the bigger vial which contained the solvent. […] Both methanol and ethanol ended up with a mixture of Form I and Form VII. Form I kept its integrity at relative humidity of up to 85% which was generated using saturated potassium chloride.
Drying and Thermal Treatment Studies. A sample was produced using 3 eq. of Mn(III) acetate. The slurry was filtered at ambient without any precautions. The relative humidity of the lab was at 54% at the time of filtration. The wet cake was washed with acetonitrile followed by XRPD analysis which conformed to Form I. The wet cake was dried on a XRPD plate with dome in the over at 40° C., under vacuum for overnight. Then, the sample holder was capped while in the oven followed by XRPD analysis. The resulting solid was a Form III. Then, the cap of the domed holder was opened and allowed the dry solid to be exposed to ambient at RH of 54%.
Wet and Dry Grinding Studies. Form I was ground using mortar and pestle under dry and wet conditions. The solvents in wet grinding were acetonitrile, acetonitrile:water (98:2) and ethyl acetate. […] It should be noted that the grinding was performed under ambient conditions where relative humidity was around 50-60%.
Competitive Slurry Experiments. Mixture of six crystal forms (I, II, III, V, VI and VII) were slurried in three different solvents (acetonitrile acetonitrile:water (98:2) and ethyl acetate), at 25±2° C. for 5 days followed by filtration under nitrogen inert condition. About 20 mg of each polymorph added to the vials. The total weight was […] in each vial and 0.75 mL solvent was added. After filtration, the cake was washed with the same solvent as the one used in the slurry. The cake was placed on a sample holder and sealed using the X-ray transparent dome and analyzed using XRPD. The cap was then removed and solid was dried at 45° C. and under vacuum for half a day. The dry sample was then sealed under nitrogen inert environment and analyzed by XRPD. The next step was to expose the dry sample to about 50% relative humidity for 30 minutes followed by XRPD analysis. In the case of acetonitrile, the wet cake was a new pattern designated as Form IV. In acetonitrile:water (98:2), the resulting solid was low crystalline Form I. It seemed that 2 vol % water was not enough to result in a crystalline hydrate. In the case of ethyl acetate, the solid was also low crystalline Form I plus a few extra peaks. The water in starting Form I could have been enough to result in a low crystalline Form I with some extra peaks of the starting forms in hydrophobic ethyl acetate. This was not observed in neat acetonitrile due to affinity of this solvent for water. […] Theoretically, the same water quantity in ethyl acetate results in higher water activity than in acetonitrile.
Form II is the wet cake out of reaction mixture unexposed to moisture. Section 3.3.2.3 (reactive crystallization) describes the procedure of making Form II. FIG. 15 illustrates the XRPD of Form II. For XRPD analysis, a silicon plate with dome was used to prevent exposure to ambient. Form III is the result of drying of any of the solid forms. […] Due to instability, some peaks might be shifted if the same sample is repeated multiple times. FIG. 16 illustrates the XRPD of Form III. For XRPD analysis, a silicon plate with dome was used to prevent exposure to ambient. Form IV is the wet cake from slurrying all the solid forms in acetonitrile for at least 5 days and at room temperature. This form is unstable and upon exposure to moisture, it converts to Form I. FIG. 17 illustrates the XRPD of Form IV. For XRPD analysis, a silicon plate with dome was used to prevent exposure to ambient. […]

Series [3] in a line: Air oxidation of the Mn(II) form. Here is the method:
Without being bound to any particular theory, the chemistry occurring when the pH of the 75 mg/mL solution rises from 4 to 9 over the 16-24 hour period may result from the presence of different oxidation states of Mn(II) and (III).
One proton is consumed per one molecule of Mn (II) porphyrin complex in the oxidation process. In the absence of acid (for example in WFI water) the oxidation process is expected to be slower and generates hydroxyl-ions: […]

For `CCn1cc[n+](CC)c1-c1c2nc(c(-c3n(CC)cc[n+]3CC)c3ccc([n-]3)c(-c3n(CC)cc[n+]3CC)c3nc(c(-c4n(CC)cc[n+]4CC)c4ccc1[n-]4)C=C3)C=C2.O.[Cl-].[Cl-].[Cl-].[Cl-].[Cl-].[Mn+3]` [Form I, [5,10,15,20-tetrakis(1,3-diethylimidazolium-2-yl)porphyrinato]manganese(III) chloride hydrate complex], the “% water uptake” value stood at 13.50% in series [1] (relative humidity 20 %), 15.01% in series [1] (relative humidity 40 %), 16.83% in series [1] (relative humidity 75 %) and 19.06% in series [1] (relative humidity 80 %). In addition, the “stability of crystal form” value in series [2] (ambient conditions and relative humidity as low as 15%) is “stable”. Further, in series [2] (competitive slurry of forms I, II, III, V, VI and VII, exposure to moisture), the “relative stability among crystal forms” value is reported as “most stable crystal form”. In addition, the “stability under grinding conditions” value in series [2] (dry and wet grinding, mortar and pestle, ambient, relative humidity 50-60%) is “pretty stable”. Further, the “relative humidity up to which the form kept its integrity” value in series [2] (vapor diffusion, 6 days exposure, saturated potassium chloride) is reported as “up to 85%”.
For `CCn1cc[n+](CC)c1-c1c2nc(c(-c3n(CC)cc[n+]3CC)c3ccc([n-]3)c(-c3n(CC)cc[n+]3CC)c3nc(c(-c4n(CC)cc[n+]4CC)c4ccc1[n-]4)C=C3)C=C2.O.[Cl-].[Cl-].[Cl-].[Cl-].[Cl-].[Mn+3]` [Form III, [5,10,15,20-tetrakis(1,3-diethylimidazolium-2-yl)porphyrinato]manganese(III) chloride hydrate complex], in series [1] (relative humidity 2 %), the “% water uptake” value is listed as 0.00%. For the same compound, the “stability of crystal form upon exposure to moisture” value in series [2] is “unstable and rapidly converts to Form I”. Moreover, the “time to full conversion to Form I” value in series [2] (dry solid exposed to ambient at RH of 54%) is “less than half an hour”.
`CCn1cc[n+](CC)c1-c1c2nc(c(-c3n(CC)cc[n+]3CC)c3ccc([n-]3)c(-c3n(CC)cc[n+]3CC)c3nc(c(-c4n(CC)cc[n+]4CC)c4ccc1[n-]4)C=C3)C=C2.[Mn+2]` [Mn(II) form]: in series [3] (aqueous solution containing 0.1% TFA), the “half-life of oxidation by air” value is 5 to 7 min. For the same compound, the stability in air entry in series [3] (solid state) is reported as “relatively stable”.
For “[5,10,15,20-tetrakis(1,3-diethylimidazolium-2-yl)porphyrinato]manganese(III) chloride hydrate complex [Form IV]”, the “stability of crystal form upon exposure to moisture” value in series [2] is “unstable”.

The values above are taken from patent publication US20160333019A1, “SYNTHESIS AND FORMULATIONS OF PORPHYRIN COMPOUNDS” (Aeolus Sciences, Inc., priority 2013, published 2016).
